Patent US20070059785A1, “Biomarkers in cancer” (SMITHKLINE BEECHAM CORPORATION, priority 2003, published 2007)
“Also recorded” adds a separate entry of the source.

Key:
Hb4a cells = experiment: Hb4a cell growth, viable cell count by trypan blue exclusion; format: cell-based; details: Homo sapiens, 72 h, serum-free, three independent experiments, read-out: inhibition of cell growth compared with vehicle treated controls
Experimental: Exponentially growing Hb4a cells were cultured in 35 mm petri dishes with serum-free medium containing 1.5% BSA. […] Viable cells were counted after 72 h using trypan blue exclusion.

Erk1/2 [1] = experiment: Clinical tumor biopsies, localization of total Erk1/2 by IHC; format: in vivo, human; details: patient 361, Day 21; baseline exclusively intra-nuclear; data not shown
Source text: Upon activation, p-Erk1/2 relocates to the nucleus where it regulates transcription of a variety of genes involved in tumor growth, adhesion, and angiogenesis.

pAKT = experiment: Confocal microscopy of AU-565 cells exposed to epigen; format: cell-based, human; details: epigen and GW572016, confocal microscopy, results not shown
Source text: In response to NDF (Neu Differentiating Factor or Heregulin), these cells divide and multiply. AU565 cells were stained with antibodies to show total ERK, or stained with antibodies to show phosphorylated ERK (p-Erk).

HN5 cells = details: Rusnak et al.; cited from earlier work
erbB2 [2] = biological target: T1, erbB2 (Homo sapiens, UniProt P04626); experiment: IP Western blot of activated erbB2 (p-Tyr/erbB2) in S1 cells; format: cell-based; set-up: endogenous in cells; details: 72 h
Experimental: FIG. 1. […] The erbB2 overexpressing human breast adenocarcinoma cell line, BT474, was obtained from the American Type Culture Collection (Rockville, M, USA). […] The EGFR overexpressing LICR-LON-HN5 head and neck carcinoma cell line, HN5, was kindly provided by Helmout Modjtahedi at the Institute of Cancer Research, Surrey, U.K.
(§1) Cell cultures were maintained in a humidified atmosphere of 5% CO2 at 37° C.
(§2) Protein concentrations were determined using a modification of the Bradford method (Bio-Rad Laboratory).
(§3) For IP Western blots, equivalent amounts of protein were precleared with Protein G Plus/Protein A agarose overnight at 4° C. Precleared lysates were then incubated overnight at 4° C. with specific antibodies. Immune complexes were precipitated with Protein G Plus/Protein A agarose beads, washed in RIPA buffer and then boiled in sample loading buffer. Steady state levels of total Erk1/2 and activated Erk1/2 (p-Erk) as well as total AKT protein and activated AKT (p-AKT) protein were assessed by Western blot. […] Proteins were transferred to Immobilon-P or nitrocellulose membranes. Efficiency and equal loading of proteins was evaluated by Ponceau S staining. Membranes were blocked for 1 hr in TBS (25 mM Tris-HCl, pH 7.4, 150 mM NaCl, 2.7 mM KCl) containing 4% (w/v) lowfat milk or 3% BSA (w/v). Membranes were then probed with specific antibodies recognizing target proteins. […]

cyclin D1 = experiment: Clinical tumor biopsies, cyclin D1 by quantitative IHC
Source text: All subjects provided written informed consent.
“Cyclin D1” refers to total cyclin D1 present as measured by immunohistochemistry and reported by OD;

erbB2 [3] = biological target: T1, erbB2; experiment: IP Western/Western blot of p-Tyr/erbB2 and total erbB2 in Hb4a cells; format: cell-based; set-up: endogenous in cells; host or cells: Hb4a; details: 5 μM, 72 h, not reversed by EGF
Experimental: The EGFR overexpressing LICR-LON-HN5 head and neck carcinoma cell line, HN5, was kindly provided by Helmout Modjtahedi at the Institute of Cancer Research, Surrey, U.K.
as §2, §3
Steady state levels of activated erbB2 and EGFR (p-Tyr/ErbB2 and p-Tyr/EGFR); total erbB2 and EGFR; activated Erk1/2 (p-Erk1/2) and total Erk1/2 were assessed by either IP Western or Western blot.

erbB2 [4] = biological target: T1, erbB2; experiment: IP Western blot of p-Tyr/erbB2 in BT474 cells, with or without EGF; format: cell-based; set-up: endogenous in cells; details: BT474, 1 μM, 24 h serum-free; not reversed by EGF
Experimental: The erbB2 overexpressing human breast adenocarcinoma cell line, BT474, was obtained from the American Type Culture Collection (Rockville, M, USA). […] The EGFR overexpressing LICR-LON-HN5 head and neck carcinoma cell line, HN5, was kindly provided by Helmout Modjtahedi at the Institute of Cancer Research, Surrey, U.K.
as §1, §2, §3

Heregulin = experiment: Clinical tumor biopsies, heregulin by IHC; details: patient 425, inflammatory breast cancer, 1200 mg/d ditosylate salt, day 21 (day 0: 5)
Experimental: Erk1/2 (1:1200), erbB3 (1:10), heregulin (1:25), and TGFα (1:20) were also immunostained using the BenchMark™ with I-VIEW detection chemistry.
“Heregulin”, a ligand that stimulates erbB3 (HER3) and HER4, was measured by immunohistochemistry and reported in OD.

Erk1/2 [5] = experiment: HN5 tumor xenograft, p-Erk1/2 and total Erk1/2 by Western blot; format: in vivo, CD-1 nude mice
Experimental: (§4) Total Erk1/2, total AKT, activated Erk1/2 (p-Erk1/2), and activated AKT (p-AKT) were assessed by Western blot loading equal amounts of protein from tumor biopsies.
HN5 cells were grown in DMEM supplemented with 10% fetal bovine serum, sodium pyruvate and L-glutamine at 37° C. in a 95/5% air/CO2 atmosphere. […] Cells (2×10^6/mouse) in 0.2 ml were injected into the right flank of CD-1 nude mice. Female CD-1 nude mice were acquired from Charles River Laboratories. Mice were maintained in filter-topped cages in an aseptic environment with laminar flow filtered ventilation. […] Tumors were biopsied pre-treatment and 4 hours after the last dose. All animal surgery was conducted under aseptic conditions. For the initial biopsy, mice were anesthetized with isofluorane inhalation. The skin over the tumor was disinfected with iodine. A small hemostat was used to tease away the skin from the tumor, and scissors were used to make a 1 cm incision over the tumor. A scalpel and forceps were used to remove approximately 100 mg of tumor. The tumor was then frozen in liquid nitrogen. Wound clips were used to close the incision. The anesthetized mice were kept warm until they recovered mobility, usually less than 1-2 minutes. For the terminal biopsy, mice were euthanized with CO2 inhalation, and the remainder of the tumor excised. HN5 tumors were placed on dry ice in vials containing cold isopentane, and stored at −80 C prior to study. BT474 tumor samples were fixed for 2-3 hours in phosphatase inhibitor consisting of sodium fluoride and sodium pervanadate in 10% neutral buffered formalin. Following fixative treatment, BT474 samples were washed in water and stored in 70% ethanol prior to study. Cell extracts were prepared by homogenization in RIPA buffer at 4° C.
as §4

T1 sequence (P04626 23-1255): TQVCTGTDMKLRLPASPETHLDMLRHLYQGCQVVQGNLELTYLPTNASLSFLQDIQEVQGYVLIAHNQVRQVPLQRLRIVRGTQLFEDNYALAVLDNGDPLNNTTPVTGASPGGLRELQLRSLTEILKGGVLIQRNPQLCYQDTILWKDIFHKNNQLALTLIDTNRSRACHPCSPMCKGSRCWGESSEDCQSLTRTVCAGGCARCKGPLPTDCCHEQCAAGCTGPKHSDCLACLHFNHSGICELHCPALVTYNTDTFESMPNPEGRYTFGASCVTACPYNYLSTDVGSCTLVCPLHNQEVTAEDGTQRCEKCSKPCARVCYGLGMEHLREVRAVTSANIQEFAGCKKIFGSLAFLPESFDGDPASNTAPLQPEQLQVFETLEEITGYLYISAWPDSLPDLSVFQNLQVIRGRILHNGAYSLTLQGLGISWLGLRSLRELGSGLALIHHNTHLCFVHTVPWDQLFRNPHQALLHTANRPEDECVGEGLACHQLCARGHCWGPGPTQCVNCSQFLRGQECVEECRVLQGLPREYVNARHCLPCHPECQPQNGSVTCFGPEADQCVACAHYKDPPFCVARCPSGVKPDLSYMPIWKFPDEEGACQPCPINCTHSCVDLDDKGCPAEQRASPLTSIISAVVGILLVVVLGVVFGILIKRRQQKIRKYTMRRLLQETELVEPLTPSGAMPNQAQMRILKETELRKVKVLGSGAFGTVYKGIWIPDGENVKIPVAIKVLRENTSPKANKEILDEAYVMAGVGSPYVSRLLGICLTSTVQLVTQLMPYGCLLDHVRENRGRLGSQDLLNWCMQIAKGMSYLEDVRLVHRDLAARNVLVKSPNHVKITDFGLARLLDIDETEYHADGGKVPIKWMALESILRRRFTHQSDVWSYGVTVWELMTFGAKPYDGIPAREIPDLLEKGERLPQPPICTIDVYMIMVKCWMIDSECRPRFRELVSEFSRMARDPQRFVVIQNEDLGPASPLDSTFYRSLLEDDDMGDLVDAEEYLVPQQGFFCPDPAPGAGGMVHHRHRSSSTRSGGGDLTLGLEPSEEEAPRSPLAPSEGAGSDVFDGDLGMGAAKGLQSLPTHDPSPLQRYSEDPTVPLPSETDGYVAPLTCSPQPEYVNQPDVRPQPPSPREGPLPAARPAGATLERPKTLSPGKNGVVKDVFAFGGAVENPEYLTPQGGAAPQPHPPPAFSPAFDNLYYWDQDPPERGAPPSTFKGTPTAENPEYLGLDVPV

Structure (SMILES): CS(=O)(=O)CCNCc1ccc(-c2ccc3ncnc(Nc4ccc(OCc5cccc(F)c5)c(Cl)c4)c3c2)o1 [GW572016, N-{3-Chloro-4-[(3-fluorobenzyl)oxy]phenyl}-6-[5-({[2-(methylsulfonyl)ethyl]amino}methyl)-2-furyl]-4-quinazolinamine]
- inhibition at 2.5 µM (Hb4a cells): 50%
- localization of total Erk1/2 staining (Erk1/2 [1]): almost entirely cytoplasmic
- p-erk in the nuclei vs cells treated with epigen alone (pAKT): comparatively less
- apoptosis (HN5 cells): increased only slightly
- inhibition of erbB2 tyrosine phosphorylation (p-Tyr/erbB2) (erbB2 [2]; 500 nM): Partial inhibition
- inhibition of erbB2 tyrosine phosphorylation (p-Tyr/erbB2) (erbB2 [2]; 2.5 μM): complete inhibition
- reduction of cyclin D1 protein expression (cyclin D1; patient 361, 1200 mg/day, d 21): 90%
- cyclin D1 OD (cyclin D1; patient 361, breast, 1200 mg/d, day 21 (day 0: 31)): 3 OD
- cyclin D1 OD (cyclin D1; patient 362, adenocarcinoma unknown primary, 900 mg/d, day 21 (day 0: 26)): 37 OD
- cyclin D1 OD (cyclin D1; patient 363, sarcoma, 500 mg/d, day 21 (day 0: 1)): 12 OD
- reduction of cyclin D1 expression (cyclin D1; patient 364, 1600 mg/day, 21 days of therapy): 50%
- cyclin D1 OD (cyclin D1; patient 364, head & neck, 1600 mg/d, day 21 (day 0: 66)): 33 OD
- cyclin D1 OD (cyclin D1; patient 367, adenocarcinoma unknown primary, 650 mg/d, day 21 (day 0: 46)): 39 OD
- cyclin D1 OD (cyclin D1; patient 369, head & neck, 1200 mg/d, day 21 (day 0: 39)): 22 OD
- cyclin D1 OD (cyclin D1; patient 371, breast, 900 mg/d, day 21 (day 0: 42)): 10 OD
- cyclin D1 OD (cyclin D1; patient 372, breast, 1200 mg/d, day 21 (day 0: 20)): 4 OD
- Cyclin D1 (cyclin D1; patient 425, inflammatory breast cancer, 1200 mg/d ditosylate salt, day 21 (day 0: 19)): 12 OD
- baseline amount of p-Tyr/erbB2 (erbB2 [3]): reduced; also recorded: decreased
- baseline levels of p-Tyr/erbB2 (erbB2 [4]): inhibited
- Heregulin (Heregulin): 8 OD
- effect on p-Erk1/2 (Erk1/2 [5]; 10 mg/kg, data not shown): little effect
- p-Erk1/2 in tumors (Erk1/2 [5]; 30 mg/kg/dose): inhibited
- total steady state Erk1/2 protein levels (Erk1/2 [5]; 30 mg/kg/dose): without affecting
